Laboratory results from ChEMBL document CHEMBL4152352, “Discovery of a non-toxic [1,2,4]triazolo[1,5-a]pyrimidin-7-one (WS-10) that modulates ABCB1-mediated multidrug resistance (MDR)” (Bioorg Med Chem, 2018).
Active and inactive are the calls of the source. No cut-off for these calls is given here.

Tests used:
SW-620 [1] = test: Cytotoxicity against human SW620 cells assessed as decrease in cell survival after 72 hrs by MTT assay; type: cell-based; settings: SW-620, 72 h
SW620/AD300 [2] = test: Cytotoxicity against human SW620/AD300 cells assessed as decrease in cell survival after 72 hrs by MTT assay; type: cell-based; settings: SW620/AD300, 72 h
ECa-109 cell line = test: Cytotoxicity against human EC109 cells assessed as decrease in cell survival at 10 to 20 uM after 72 hrs by MTT assay; type: cell-based; settings: eca-109, 72 h
TE-1 = test: Cytotoxicity against human TE1 cells assessed as decrease in cell survival at 10 to 20 uM after 72 hrs by MTT assay; type: cell-based; settings: te-1, 72 h
A549 = test: Cytotoxicity against human A549 cells assessed as decrease in cell survival at 10 to 20 uM after 72 hrs by MTT assay; type: cell-based; settings: a549, 72 h
SGC-7901 = test: Cytotoxicity against human SGC7901 cells assessed as decrease in cell survival at 10 to 20 uM after 72 hrs by MTT assay; type: cell-based; settings: sgc-7901, 72 h
MGC-803 = test: Cytotoxicity against human MGC803 cells assessed as decrease in cell survival at 10 to 20 uM after 72 hrs by MTT assay; type: cell-based; settings: mgc-803, 72 h
SW-620 [3] = test: Potentiation of paclitaxel-induced cytotoxicity against human SW620 cells assessed as change in paclitaxel IC50 at 10 uM after 72 hrs by MTT assay relative to control; type: cell-based; settings: sw-620, 72 h
SW-620 [4] = test: Potentiation of paclitaxel-induced cytotoxicity against human SW620 cells assessed as change in paclitaxel IC50 at 20 uM after 72 hrs by MTT assay relative to control; type: cell-based; settings: sw-620, 72 h
SW-620 [5] = test: Potentiation of paclitaxel-induced cytotoxicity against human SW620 cells assessed as change in paclitaxel IC50 at 4 uM after 72 hrs by MTT assay relative to control; type: cell-based; settings: sw-620, 72 h
SW-620 [6] = test: Potentiation of doxorubicin-induced cytotoxicity against human SW620 cells assessed as change in doxorubicin IC50 at 10 uM after 72 hrs by MTT assay relative to control; type: cell-based; settings: sw-620, 72 h
SW-620 [7] = test: Potentiation of doxorubicin-induced cytotoxicity against human SW620 cells assessed as change in doxorubicin IC50 at 20 uM after 72 hrs by MTT assay relative to control; type: cell-based; settings: sw-620, 72 h
SW-620 [8] = test: Potentiation of doxorubicin-induced cytotoxicity against human SW620 cells assessed as change in doxorubicin IC50 at 4 uM after 72 hrs by MTT assay relative to control; type: cell-based; settings: sw-620, 72 h
SW-620 [9] = test: Potentiation of cisplatin-induced cytotoxicity against human SW620 cells assessed as change in cisplatin IC50 at 10 uM after 72 hrs by MTT assay relative to control; type: cell-based; settings: sw-620, 72 h
SW-620 [10] = test: Potentiation of cisplatin-induced cytotoxicity against human SW620 cells assessed as change in cisplatin IC50 at 20 uM after 72 hrs by MTT assay relative to control; type: cell-based; settings: sw-620, 72 h
SW-620 [11] = test: Potentiation of cisplatin-induced cytotoxicity against human SW620 cells assessed as change in cisplatin IC50 at 4 uM after 72 hrs by MTT assay relative to control; type: cell-based; settings: sw-620, 72 h
[12] = Ratio of paclitaxel IC50 for cytotoxicity against human SW620 cells in absence of test compound to paclitaxel IC50 for human SW620/Ad300 cells in presence to 10 uM test compound; type: functional
[13] = Ratio of paclitaxel IC50 for cytotoxicity against human SW620 cells in absence of test compound to paclitaxel IC50 for human SW620/Ad300 cells in presence to 20 uM test compound; type: functional
[14] = Ratio of paclitaxel IC50 for cytotoxicity against human SW620 cells in absence of test compound to paclitaxel IC50 for human SW620/Ad300 cells in presence to 4 uM test compound; type: functional
[15] = Ratio of doxorubicin IC50 for cytotoxicity against human SW620 cells in absence of test compound to doxorubicin IC50 for human SW620/Ad300 cells in presence to 10 uM test compound; type: functional
[16] = Ratio of doxorubicin IC50 for cytotoxicity against human SW620 cells in absence of test compound to doxorubicin IC50 for human SW620/Ad300 cells in presence to 20 uM test compound; type: functional
[17] = Ratio of doxorubicin IC50 for cytotoxicity against human SW620 cells in absence of test compound to doxorubicin IC50 for human SW620/Ad300 cells in presence to 4 uM test compound; type: functional
[18] = Ratio of cisplatin IC50 for cytotoxicity against human SW620 cells in absence of test compound to cisplatin IC50 for human SW620/Ad300 cells in presence to 10 uM test compound; type: functional
[19] = Ratio of cisplatin IC50 for cytotoxicity against human SW620 cells in absence of test compound to cisplatin IC50 for human SW620/Ad300 cells in presence to 20 uM test compound; type: functional
[20] = Ratio of cisplatin IC50 for cytotoxicity against human SW620 cells in absence of test compound to cisplatin IC50 for human SW620/Ad300 cells in presence to 4 uM test compound; type: functional
HEK-293T [21] = test: Potentiation of paclitaxel-induced cytotoxicity against HEK293T cells assessed as change in paclitaxel IC50 at 10 uM after 72 hrs by MTT assay relative to control; type: cell-based; settings: human
HEK-293T [22] = test: Potentiation of paclitaxel-induced cytotoxicity against HEK293T cells assessed as change in paclitaxel IC50 at 20 uM after 72 hrs by MTT assay relative to control; type: cell-based; settings: human
HEK-293T [23] = test: Potentiation of paclitaxel-induced cytotoxicity against HEK293T cells assessed as change in paclitaxel IC50 at 4 uM after 72 hrs by MTT assay relative to control; type: cell-based; settings: human
HEK-293T [24] = test: Potentiation of doxorubicin-induced cytotoxicity against HEK293T cells assessed as change in doxorubicin IC50 at 10 uM after 72 hrs by MTT assay relative to control; type: cell-based; settings: human
HEK-293T [25] = test: Potentiation of doxorubicin-induced cytotoxicity against HEK293T cells assessed as change in doxorubicin IC50 at 20 uM after 72 hrs by MTT assay relative to control; type: cell-based; settings: human
HEK-293T [26] = test: Potentiation of doxorubicin-induced cytotoxicity against HEK293T cells assessed as change in doxorubicin IC50 at 4 uM after 72 hrs by MTT assay relative to control; type: cell-based; settings: human
HEK-293T [27] = test: Potentiation of cisplatin-induced cytotoxicity against HEK293T cells assessed as change in cisplatin IC50 at 10 uM after 72 hrs by MTT assay relative to control; type: cell-based; settings: human
HEK-293T [28] = test: Potentiation of cisplatin-induced cytotoxicity against HEK293T cells assessed as change in cisplatin IC50 at 20 uM after 72 hrs by MTT assay relative to control; type: cell-based; settings: human
HEK-293T [29] = test: Potentiation of cisplatin-induced cytotoxicity against HEK293T cells assessed as change in cisplatin IC50 at 4 uM after 72 hrs by MTT assay relative to control; type: cell-based; settings: human
[30] = Ratio of paclitaxel IC50 for cytotoxicity against HEK293T cells in absence of test compound to paclitaxel IC50 for HEK293T cells expressing ABCB1 in presence of 10 uM test compound; type: functional, Homo sapiens
[31] = Ratio of paclitaxel IC50 for cytotoxicity against HEK293T cells in absence of test compound to paclitaxel IC50 for HEK293T cells expressing ABCB1 in presence of 20 uM test compound; type: functional, Homo sapiens
[32] = Ratio of paclitaxel IC50 for cytotoxicity against HEK293T cells in absence of test compound to paclitaxel IC50 for HEK293T cells expressing ABCB1 in presence of 4 uM test compound; type: functional, Homo sapiens
[33] = Ratio of doxorubicin IC50 for cytotoxicity against HEK293T cells in absence of test compound to doxorubicin IC50 for HEK293T cells expressing ABCB1 in presence of 10 uM test compound; type: functional, Homo sapiens
[34] = Ratio of doxorubicin IC50 for cytotoxicity against HEK293T cells in absence of test compound to doxorubicin IC50 for HEK293T cells expressing ABCB1 in presence of 20 uM test compound; type: functional, Homo sapiens
[35] = Ratio of doxorubicin IC50 for cytotoxicity against HEK293T cells in absence of test compound to doxorubicin IC50 for HEK293T cells expressing ABCB1 in presence of 4 uM test compound; type: functional, Homo sapiens
[36] = Ratio of cisplatin IC50 for cytotoxicity against HEK293T cells in absence of test compound to cisplatin IC50 for HEK293T cells expressing ABCB1 in presence of 10 uM test compound; type: functional, Homo sapiens
[37] = Ratio of cisplatin IC50 for cytotoxicity against HEK293T cells in absence of test compound to cisplatin IC50 for HEK293T cells expressing ABCB1 in presence of 20 uM test compound; type: functional, Homo sapiens
[38] = Ratio of cisplatin IC50 for cytotoxicity against HEK293T cells in absence of test compound to cisplatin IC50 for HEK293T cells expressing ABCB1 in presence of 4 uM test compound; type: functional, Homo sapiens
[39] = molecular target: T1, ATP-dependent translocase ABCB1 (Homo sapiens, UniProt P08183); test: Inhibition of ABCB1 in human SW620/Ad300 cells assessed as potentiation of paclitaxel-induced cytotoxicity after 72 hrs by MTT assay; type: cell-based
[40] = molecular target: T1, ATP-dependent translocase ABCB1; test: Inhibition of ABCB1 in human SW620/Ad300 cells assessed as potentiation of doxorubicin-induced cytotoxicity after 72 hrs by MTT assay; type: cell-based
[41] = molecular target: T1, ATP-dependent translocase ABCB1; test: Inhibition of ABCB1 (unknown origin) expressed in HEK293T cells assessed as potentiation of doxorubicin-induced cytotoxicity after 72 hrs by MTT assay; type: cell-based
[42] = molecular target: T1, ATP-dependent translocase ABCB1; test: Inhibition of ABCB1 in human SW620/Ad300 cells assessed as increase in intracellular paclitaxel accumulation at 10 to 20 uM preincubated for 72 hrs followed by paclitaxel addition and measured after 3 hrs by UPLC method; type: cell-based
SW620/AD300 [43] = test: Effect on expression of ABCB1 protein in human SW620/Ad300 cells at 10 to 20 uM by Western blot method; type: functional, cell-based
SW620/AD300 [44] = test: Effect on expression of ABCB1 protein in human SW620/Ad300 cells at 20 uM after 24 to 96 hrs by Western blot method; type: functional, cell-based
[45] = molecular target: T1, ATP-dependent translocase ABCB1; test: Stabilization of ABCB1 in human SW620/Ad300 cells at 10 uM after 30 mins by cellular thermal shift assay; type: cell-based; settings: 0.5 h

T1 sequence (P08183 whole entry): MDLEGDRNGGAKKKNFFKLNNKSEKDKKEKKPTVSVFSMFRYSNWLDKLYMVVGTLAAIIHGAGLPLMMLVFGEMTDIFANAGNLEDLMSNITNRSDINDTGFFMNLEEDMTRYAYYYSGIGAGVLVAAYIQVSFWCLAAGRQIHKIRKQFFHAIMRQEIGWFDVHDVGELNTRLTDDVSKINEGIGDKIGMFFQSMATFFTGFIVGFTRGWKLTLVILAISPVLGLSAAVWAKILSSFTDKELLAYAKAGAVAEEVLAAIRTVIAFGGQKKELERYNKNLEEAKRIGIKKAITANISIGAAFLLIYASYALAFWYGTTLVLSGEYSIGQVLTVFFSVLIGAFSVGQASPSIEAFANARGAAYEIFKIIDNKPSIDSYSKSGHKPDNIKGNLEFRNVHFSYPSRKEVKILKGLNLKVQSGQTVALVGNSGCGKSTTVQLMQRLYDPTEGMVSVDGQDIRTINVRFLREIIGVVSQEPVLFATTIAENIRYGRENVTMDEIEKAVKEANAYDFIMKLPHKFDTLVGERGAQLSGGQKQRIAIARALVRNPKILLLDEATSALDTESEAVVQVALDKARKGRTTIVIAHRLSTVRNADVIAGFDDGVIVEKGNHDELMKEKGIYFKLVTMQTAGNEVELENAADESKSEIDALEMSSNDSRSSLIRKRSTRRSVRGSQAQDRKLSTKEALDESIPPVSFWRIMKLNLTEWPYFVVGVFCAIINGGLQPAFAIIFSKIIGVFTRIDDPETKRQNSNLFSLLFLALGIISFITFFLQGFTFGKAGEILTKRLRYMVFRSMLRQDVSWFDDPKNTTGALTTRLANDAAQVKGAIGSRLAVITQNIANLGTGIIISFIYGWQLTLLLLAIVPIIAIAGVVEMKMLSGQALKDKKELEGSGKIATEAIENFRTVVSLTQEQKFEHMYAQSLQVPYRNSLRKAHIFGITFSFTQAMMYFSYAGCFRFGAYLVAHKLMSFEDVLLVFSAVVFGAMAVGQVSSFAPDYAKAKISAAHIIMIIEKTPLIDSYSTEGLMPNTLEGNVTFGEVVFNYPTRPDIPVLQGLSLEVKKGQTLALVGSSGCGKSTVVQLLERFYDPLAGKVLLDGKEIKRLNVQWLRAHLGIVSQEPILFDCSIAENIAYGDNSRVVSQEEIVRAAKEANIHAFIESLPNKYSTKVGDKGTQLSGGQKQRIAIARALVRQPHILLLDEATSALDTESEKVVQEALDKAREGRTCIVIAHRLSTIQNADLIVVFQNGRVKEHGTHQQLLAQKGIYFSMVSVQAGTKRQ

- inhibition (INH) [42]: Active
- Activity [45]: Active
SMILES: O=c1cc(-c2ccccc2)[nH]c2nc(SCc3nc4ccccc4[nH]3)nn12
- IC50 (SW-620 [1]): 86 µM
- IC50 (SW620/AD300 [2]): 106 µM
- Activity (ECa-109 cell line): Non-Toxic
- Activity (TE-1): Non-Toxic
- Activity (A549): Non-Toxic
- Activity (SGC-7901): Non-Toxic
- Activity (MGC-803): Non-Toxic
- fold change (FC) (SW-620 [3]): 1.2
- fold change (FC) (SW-620 [4]): 0.81
- fold change (FC) (SW-620 [5]): 1.29
- fold change (FC) (SW-620 [6]): 1.17
- fold change (FC) (SW-620 [7]): 1.14
- fold change (FC) (SW-620 [8]): 1.18
- fold change (FC) (SW-620 [9]): 1.07
- fold change (FC) (SW-620 [10]): 0.97
- fold change (FC) (SW-620 [11]): 1.1
- Ratio IC50 [12]: 279.2
- Ratio IC50 [13]: 125.8
- Ratio IC50 [14]: 156.74
- Ratio IC50 [15]: 6.02
- Ratio IC50 [16]: 3.77
- Ratio IC50 [17]: 4.32
- Ratio IC50 [18]: 0.96
- Ratio IC50 [19]: 1.01
- Ratio IC50 [20]: 0.98
- fold change (FC) (HEK-293T [21]): 0.87
- fold change (FC) (HEK-293T [22]): 0.83
- fold change (FC) (HEK-293T [23]): 0.84
- fold change (FC) (HEK-293T [24]): 1.14
- fold change (FC) (HEK-293T [25]): 1.08
- fold change (FC) (HEK-293T [26]): 1.07
- fold change (FC) (HEK-293T [27]): 1.04
- fold change (FC) (HEK-293T [28]): 0.98
- fold change (FC) (HEK-293T [29]): 0.89
- Ratio IC50 [30]: 27.8
- Ratio IC50 [31]: 19.37
- Ratio IC50 [32]: 15.69
- Ratio IC50 [33]: 5.36
- Ratio IC50 [34]: 4.05
- Ratio IC50 [35]: 4.1
- Ratio IC50 [36]: 1.05
- Ratio IC50 [37]: 0.91
- Ratio IC50 [38]: 0.91
- inhibition (INH) [39]: Dose-dependent effect
- inhibition (INH) [40]: Dose-dependent effect
- inhibition (INH) [41]: Dose-dependent effect
- Activity (SW620/AD300 [43]): inactive
- Activity (SW620/AD300 [44]): inactive
